Measurements published in ChEMBL document CHEMBL3407370, “Potent acetylcholinesterase inhibitors: design, synthesis, biological evaluation, and docking study of acridone linked to 1,2,3-triazole derivatives” (Eur J Med Chem, 2015).

Key:
Cholinesterase = Cholinesterase (Equus caballus, UniProt P81908); assay: Inhibition of equine serum butylcholinesterase using acetylthiocholine iodide as substrate after 15 mins by Ellman's method
Acetylcholinesterase = Acetylcholinesterase (Electrophorus electricus, UniProt O42275); assay: Inhibition of electric eel acetylcholinesterase using acetylthiocholine iodide as substrate after 15 mins by Ellman's method
[1] = Antioxidant activity assessed as DPPH radical scavenging activity at 700 ug/ml incubated in dark condition measured after 30 mins by UV/vis spectrophotometric analysis relative to control; format: physicochemical; conditions: 0.5 h
[2] = Antioxidant activity assessed as DPPH radical scavenging activity incubated in dark condition measured after 30 mins by UV/vis spectrophotometric analysis; format: physicochemical

Acetylcholinesterase, sequence (O42275 whole entry): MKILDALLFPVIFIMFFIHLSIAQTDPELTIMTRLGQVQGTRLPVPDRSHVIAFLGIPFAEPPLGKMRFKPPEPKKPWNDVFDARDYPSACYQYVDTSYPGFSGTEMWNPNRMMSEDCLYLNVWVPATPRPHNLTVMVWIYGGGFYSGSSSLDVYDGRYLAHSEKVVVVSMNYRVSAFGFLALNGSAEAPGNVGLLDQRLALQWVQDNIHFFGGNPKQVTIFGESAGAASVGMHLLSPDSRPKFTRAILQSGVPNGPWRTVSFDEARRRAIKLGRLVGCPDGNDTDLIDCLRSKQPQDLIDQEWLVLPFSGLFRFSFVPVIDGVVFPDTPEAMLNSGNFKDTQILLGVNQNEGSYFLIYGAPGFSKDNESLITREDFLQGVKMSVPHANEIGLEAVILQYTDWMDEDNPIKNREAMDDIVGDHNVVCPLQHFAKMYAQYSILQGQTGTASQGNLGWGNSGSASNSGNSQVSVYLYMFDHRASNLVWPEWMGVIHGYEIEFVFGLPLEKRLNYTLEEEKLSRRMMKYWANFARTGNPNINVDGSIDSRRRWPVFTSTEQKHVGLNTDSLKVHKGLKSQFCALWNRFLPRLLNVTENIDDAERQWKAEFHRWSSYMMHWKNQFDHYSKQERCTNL
Cholinesterase, sequence (P81908 whole entry): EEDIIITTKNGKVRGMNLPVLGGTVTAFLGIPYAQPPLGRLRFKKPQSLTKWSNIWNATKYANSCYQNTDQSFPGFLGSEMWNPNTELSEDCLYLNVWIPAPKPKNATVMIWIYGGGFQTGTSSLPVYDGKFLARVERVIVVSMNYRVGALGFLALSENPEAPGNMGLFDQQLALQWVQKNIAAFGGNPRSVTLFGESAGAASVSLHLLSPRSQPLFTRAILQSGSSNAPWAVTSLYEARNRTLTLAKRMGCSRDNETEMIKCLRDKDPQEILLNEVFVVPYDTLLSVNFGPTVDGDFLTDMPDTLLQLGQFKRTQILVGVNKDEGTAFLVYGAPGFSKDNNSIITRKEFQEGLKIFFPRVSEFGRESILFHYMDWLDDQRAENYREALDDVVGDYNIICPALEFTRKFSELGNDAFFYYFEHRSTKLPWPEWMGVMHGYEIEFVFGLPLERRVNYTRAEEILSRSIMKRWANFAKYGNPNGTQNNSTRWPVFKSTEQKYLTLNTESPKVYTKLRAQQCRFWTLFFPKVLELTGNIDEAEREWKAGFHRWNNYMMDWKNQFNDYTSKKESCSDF

Row | Structure (SMILES) | IC50 (Cholinesterase) [µM] | IC50 (Acetylcholinesterase) [µM] | inhibition (INH) [1] [%] | EC50 [2] [µg/mL]
1 | O=c1c2ccccc2n(Cc2cn(Cc3ccc(Cl)cc3)nn2)c2ccc(Cl)cc12 | ≥ 100 | 17.7 | – | –
2 | Cc1ccc2c(c1)c(=O)c1ccccc1n2Cc1cn(Cc2ccc(Cl)cc2)nn1 | 87.2 | 10.8 | – | –
3 | COc1ccc2c(c1)c(=O)c1ccccc1n2Cc1cn(Cc2ccc(Cl)cc2)nn1 | ≥ 100 | 7.31 | – | –
4 | COc1ccc2c(c1)c(=O)c1ccccc1n2Cc1cn(Cc2ccccc2)nn1 | ≥ 100 | 24 | 8.65 | > 700
5 | O=c1c2ccccc2n(Cc2cn(Cc3ccccc3)nn2)c2ccccc12 | ≥ 100 | ≥ 100 | – | –
6 | Cc1ccc2c(c1)c(=O)c1ccccc1n2Cc1cn(Cc2ccccc2)nn1 | ≥ 100 | ≥ 100 | 7.09 | > 333
7 | O=c1c2ccccc2n(Cc2cn(Cc3ccccc3)nn2)c2ccc(Cl)cc12 | ≥ 100 | 88.1 | 26.6 | > 700
8 | O=c1c2ccccc2n(Cc2cn(Cc3ccc(Cl)cc3)nn2)c2ccc(Br)cc12 | ≥ 100 | 45.6 | – | –
9 | O=c1c2ccccc2n(Cc2cn(Cc3ccc(Cl)cc3)nn2)c2c(F)cccc12 | ≥ 100 | 24.5 | – | –
10 | O=c1c2ccccc2n(Cc2cn(Cc3ccccc3)nn2)c2c(F)cccc12 | ≥ 100 | ≥ 100 | 14.79 | > 700
11 | O=c1c2ccccc2n(Cc2cn(Cc3ccc(Cl)cc3)nn2)c2ccccc12 | ≥ 100 | 59.7 | 21.78 | > 333
12 | O=c1c2ccccc2n(Cc2cn(Cc3ccc([N+](=O)[O-])cc3)nn2)c2ccc(Br)cc12 | ≥ 100 | 52.8 | – | –
13 | O=c1c2ccccc2n(Cc2cn(Cc3ccc([N+](=O)[O-])cc3)nn2)c2ccc(Cl)cc12 | ≥ 100 | 38.3 | – | –
14 | O=c1c2ccccc2n(Cc2cn(Cc3ccccc3)nn2)c2ccc(Br)cc12 | ≥ 100 | 68.1 | – | –
